Assay results as given in patent publication US6706740B2, “Fungicidal heterocyclic aromatic amides and their compositions, methods of use and preparation” (Dow AgroSciences LLC, priority 1999, dated 2004).

The compounds below were run on Magnaporthe grisea (Pyricularia oryzae—PYRIOR) (assay: microbe, parasite or virus in culture). Conditions: Pyricularia oryzae, read-out: PYRIOR in vitro Growth Inhibition.
Assay type: cell-based
With `COc1ccnc(C(=O)N[C@H]2C[C@@H](O[Si](C)(C)C(C)(C)C)O[C@@H](C)[C@@H]2OCc2ccccc2)c1O` [Compound 328] the inhibition at 25 ppm was less than 80%.
`CCC(C)C(=O)O[C@H]1[C@H](C)OC(=O)[C@@H](NC(=O)c2nccc(OC)c2OC(C)=O)COC(=O)[C@@H]1Cc1ccccc1` (stereo partly drawn) [Compound 701] was tested, and the inhibition at 25 ppm was less than 80%.
`COc1ccnc(C(=O)N[C@H]2COC(=O)[C@H](Cc3ccccc3)[C@@H](OC(=O)C(C)C)[C@H](C)OC2=O)c1OC(=O)C=C(C)C` [Compound 607] gave an inhibition at 25 ppm of less than 80%.

Each compound was assayed on Rhizoctonia solani (RHIZSO) (assay: microbe, parasite or virus in culture). Conditions: Rhizoctonia solani, read-out: RHIZSO in vitro Growth Inhibition.
Assay type: cell-based
In the case of `COc1ccnc(C(=O)N[C@H]2C[C@@H](O[Si](C)(C)C(C)(C)C)O[C@@H](C)[C@@H]2OCc2ccccc2)c1O` [Compound 328], the inhibition at 25 ppm is reported as less than 80%.
`CCC(C)C(=O)O[C@H]1[C@H](C)OC(=O)[C@@H](NC(=O)c2nccc(OC)c2OC(C)=O)COC(=O)[C@@H]1Cc1ccccc1` (stereo partly drawn) [Compound 701] was tested, and the inhibition at 25 ppm was less than 80%.
Compound `COc1ccnc(C(=O)N[C@H]2COC(=O)[C@H](Cc3ccccc3)[C@@H](OC(=O)C(C)C)[C@H](C)OC2=O)c1OC(=O)C=C(C)C` [Compound 607] has an inhibition at 25 ppm of less than 80%.

The compounds below were run on Mycosphaerella graminicola (Septoria tritici—SEPTTR) (assay: In vitro fungal growth inhibition, Mycosphaerella graminicola (SEPTTR)). Conditions: Zymoseptoria tritici, read-out: SEPTTR in vitro Growth Inhibition.
Assay type: cell-based
Compound `COc1ccnc(C(=O)N[C@H]2C[C@@H](O[Si](C)(C)C(C)(C)C)O[C@@H](C)[C@@H]2OCc2ccccc2)c1O` [Compound 328] has an inhibition at 25 ppm of less than 80%.

Same assay, conditions: Zymoseptoria tritici; 25 ppm in growth medium; read-out: SEPTTR in vitro Growth Inhibition
With `CCC(C)C(=O)O[C@H]1[C@H](C)OC(=O)[C@@H](NC(=O)c2nccc(OC)c2OC(C)=O)COC(=O)[C@@H]1Cc1ccccc1` (stereo partly drawn) [Compound 701] the inhibition at 25 ppm was greater than 80%.
Work on `COc1ccnc(C(=O)N[C@H]2COC(=O)[C@H](Cc3ccccc3)[C@@H](OC(=O)C(C)C)[C@H](C)OC2=O)c1OC(=O)C=C(C)C` [Compound 607] yielded an inhibition at 25 ppm of less than 80%.

The compounds below were run on Stagonospora nodorum (Leptosphaeria nodorum—LEPTNO) (assay: In vitro fungal growth inhibition, Stagonospora nodorum (LEPTNO)). Conditions: Leptosphaeria, read-out: LEPTNO in vitro Growth Inhibition.
Assay type: cell-based
Compound `COc1ccnc(C(=O)N[C@H]2C[C@@H](O[Si](C)(C)C(C)(C)C)O[C@@H](C)[C@@H]2OCc2ccccc2)c1O` [Compound 328] has an inhibition at 25 ppm of less than 80%.

Same assay, conditions: Leptosphaeria; 25 ppm in growth medium; read-out: LEPTNO in vitro Growth Inhibition
`CCC(C)C(=O)O[C@H]1[C@H](C)OC(=O)[C@@H](NC(=O)c2nccc(OC)c2OC(C)=O)COC(=O)[C@@H]1Cc1ccccc1` (stereo partly drawn) [Compound 701] was tested, and the inhibition at 25 ppm was greater than 80%.
Compound `COc1ccnc(C(=O)N[C@H]2COC(=O)[C@H](Cc3ccccc3)[C@@H](OC(=O)C(C)C)[C@H](C)OC2=O)c1OC(=O)C=C(C)C` [Compound 607] has an inhibition at 25 ppm greater than 80%.

Each compound was assayed on Ustilago maydis (USTIMA) (assay: microbe, parasite or virus in culture). Conditions: Mycosarcoma maydis, read-out: USTIMA in vitro Growth Inhibition.
Assay type: cell-based
For `COc1ccnc(C(=O)N[C@H]2C[C@@H](O[Si](C)(C)C(C)(C)C)O[C@@H](C)[C@@H]2OCc2ccccc2)c1O` [Compound 328], the inhibition at 25 ppm was less than 80%.
`CCC(C)C(=O)O[C@H]1[C@H](C)OC(=O)[C@@H](NC(=O)c2nccc(OC)c2OC(C)=O)COC(=O)[C@@H]1Cc1ccccc1` (stereo partly drawn) [Compound 701] gave an inhibition at 25 ppm of less than 80%.
Work on `COc1ccnc(C(=O)N[C@H]2COC(=O)[C@H](Cc3ccccc3)[C@@H](OC(=O)C(C)C)[C@H](C)OC2=O)c1OC(=O)C=C(C)C` [Compound 607] yielded an inhibition at 25 ppm of less than 80%.

What follows are compounds tested on Phytophthora infestans (PHYTIN) (assay: microbe, parasite or virus in culture). Conditions: Phytophthora infestans, read-out: PHYTIN in vitro Growth Inhibition.
Assay type: cell-based
In the case of `COc1ccnc(C(=O)N[C@H]2C[C@@H](O[Si](C)(C)C(C)(C)C)O[C@@H](C)[C@@H]2OCc2ccccc2)c1O` [Compound 328], the inhibition at 25 ppm is reported as greater than 80%.
For `CCC(C)C(=O)O[C@H]1[C@H](C)OC(=O)[C@@H](NC(=O)c2nccc(OC)c2OC(C)=O)COC(=O)[C@@H]1Cc1ccccc1` (stereo partly drawn) [Compound 701], the inhibition at 25 ppm was less than 80%.
With `COc1ccnc(C(=O)N[C@H]2COC(=O)[C@H](Cc3ccccc3)[C@@H](OC(=O)C(C)C)[C@H](C)OC2=O)c1OC(=O)C=C(C)C` [Compound 607] the inhibition at 25 ppm was less than 80%.

Each compound was assayed on Phytophthora infestans—PHYTIN (assay: whole plant or invertebrate). Conditions: Phytophthora, in Solanum lycopersicum, 24 h, read-out: PHYTIN in vivo 1 Day Protectant.
Assay type: in vivo
Work on `COc1ccnc(C(=O)N[C@H]2C[C@@H](O[Si](C)(C)C(C)(C)C)O[C@@H](C)[C@@H]2OCc2ccccc2)c1O` [Compound 328] yielded a pest or weed control at 100 ppm of less than 25%.
For `CCC(C)C(=O)O[C@H]1[C@H](C)OC(=O)[C@@H](NC(=O)c2nccc(OC)c2OC(C)=O)COC(=O)[C@@H]1Cc1ccccc1` (stereo partly drawn) [Compound 701], the pest or weed control at 100 ppm was less than 25%.
`COc1ccnc(C(=O)N[C@H]2COC(=O)[C@H](Cc3ccccc3)[C@@H](OC(=O)C(C)C)[C@H](C)OC2=O)c1OC(=O)C=C(C)C` [Compound 607] gave a pest or weed control at 100 ppm of less than 25%.

What follows are compounds tested on Puccinia recondita—PUCCRT (assay: Brown Rust of Wheat, in vivo whole plant, 24 Hour Protectant). Conditions: 100 ppm spray, wheat, 24 hour protectant, % control of fungal infection vs untreated plants.
`CCC(C)C(=O)O[C@H]1[C@H](C)OC(=O)[C@@H](NC(=O)c2nccc(OC)c2OC(C)=O)COC(=O)[C@@H]1Cc1ccccc1` (stereo partly drawn) [Compound 701] was tested, and the “PUCCRT in vivo 1 Day Protectant” value was “+ +”.
In the case of `COc1ccnc(C(=O)N[C@H]2COC(=O)[C@H](Cc3ccccc3)[C@@H](OC(=O)C(C)C)[C@H](C)OC2=O)c1OC(=O)C=C(C)C` [Compound 607], the “PUCCRT in vivo 1 Day Protectant” value is reported as “+ +”.

Same assay, conditions: Puccinia; 100 ppm spray, wheat, 24 hour protectant; control of fungal infection vs untreated plants; read-out: PUCCRT in vivo 1 Day Protectant
`COc1ccnc(C(=O)N[C@H]2C[C@@H](O[Si](C)(C)C(C)(C)C)O[C@@H](C)[C@@H]2OCc2ccccc2)c1O` [Compound 328] gave a pest or weed control at 100 ppm of less than 25%.

What follows are compounds tested on Erysiphe graminis—ERYSGT (assay: Powdery Mildew of Wheat, in vivo whole plant, 24 Hour Protectant). Conditions: 100 ppm spray, wheat, 24 hour protectant, % control of fungal infection vs untreated plants.
In the case of `CCC(C)C(=O)O[C@H]1[C@H](C)OC(=O)[C@@H](NC(=O)c2nccc(OC)c2OC(C)=O)COC(=O)[C@@H]1Cc1ccccc1` (stereo partly drawn) [Compound 701], the “ERYSGT in vivo 1 Day Protectant” value is reported as “+ +”.

Same assay, conditions: Erysiphe; 100 ppm spray, wheat, 24 hour protectant, % control of fungal infection vs untreated plants; read-out: ERYSGT in vivo 1 Day Protectant
Work on `COc1ccnc(C(=O)N[C@H]2COC(=O)[C@H](Cc3ccccc3)[C@@H](OC(=O)C(C)C)[C@H](C)OC2=O)c1OC(=O)C=C(C)C` [Compound 607] yielded a pest or weed control at 100 ppm of less than 25%.

Same assay, conditions: Erysiphe; 100 ppm spray, wheat, 24 hour protectant; control of fungal infection vs untreated plants; read-out: ERYSGT in vivo 1 Day Protectant
`COc1ccnc(C(=O)N[C@H]2C[C@@H](O[Si](C)(C)C(C)(C)C)O[C@@H](C)[C@@H]2OCc2ccccc2)c1O` [Compound 328] gave a pest or weed control at 100 ppm of less than 25%.

The compounds below were run on Septoria tritici—SEPTTR (assay: Leaf Blotch of Wheat, in vivo whole plant, 24 Hour Protectant). Conditions: 100 ppm spray, wheat, 24 hour protectant, % control of fungal infection vs untreated plants.
With `CCC(C)C(=O)O[C@H]1[C@H](C)OC(=O)[C@@H](NC(=O)c2nccc(OC)c2OC(C)=O)COC(=O)[C@@H]1Cc1ccccc1` (stereo partly drawn) [Compound 701] the “SEPTTR in vivo 1 Day Protectant” value was “+ +”.
In the case of `COc1ccnc(C(=O)N[C@H]2COC(=O)[C@H](Cc3ccccc3)[C@@H](OC(=O)C(C)C)[C@H](C)OC2=O)c1OC(=O)C=C(C)C` [Compound 607], the “SEPTTR in vivo 1 Day Protectant” value is reported as “+ +”.

Same assay, conditions: Zymoseptoria tritici, 24 h, 100 ppm spray, wheat, 24 hour protectant; control of fungal infection vs untreated plants; read-out: SEPTTR in vivo 1 Day Protectant
In the case of `COc1ccnc(C(=O)N[C@H]2C[C@@H](O[Si](C)(C)C(C)(C)C)O[C@@H](C)[C@@H]2OCc2ccccc2)c1O` [Compound 328], the pest or weed control at 100 ppm is reported as 25 to 74%.

Each compound was assayed on Leptosphaeria nodorum—LEPTNO (assay: Glume Blotch of Wheat, in vivo whole plant, 24 Hour Protectant). Conditions: 100 ppm spray, wheat, 24 hour protectant, % control of fungal infection vs untreated plants.
`CCC(C)C(=O)O[C@H]1[C@H](C)OC(=O)[C@@H](NC(=O)c2nccc(OC)c2OC(C)=O)COC(=O)[C@@H]1Cc1ccccc1` (stereo partly drawn) [Compound 701] was tested, and the “LEPTNO in vivo 1 Day Protectant” value was “+ +”.

Same assay, conditions: Leptosphaeria; 100 ppm spray, wheat, 24 hour protectant, % control of fungal infection vs untreated plants; read-out: LEPTNO in vivo 1 Day Protectant
In the case of `COc1ccnc(C(=O)N[C@H]2COC(=O)[C@H](Cc3ccccc3)[C@@H](OC(=O)C(C)C)[C@H](C)OC2=O)c1OC(=O)C=C(C)C` [Compound 607], the pest or weed control at 100 ppm is reported as 25 to 74%.

Same assay, conditions: Leptosphaeria; 100 ppm spray, wheat, 24 hour protectant; control of fungal infection vs untreated plants; read-out: LEPTNO in vivo 1 Day Protectant
Work on `COc1ccnc(C(=O)N[C@H]2C[C@@H](O[Si](C)(C)C(C)(C)C)O[C@@H](C)[C@@H]2OCc2ccccc2)c1O` [Compound 328] yielded a pest or weed control at 100 ppm of 25 to 74%.
